This note sets out measurements from patent US10030027B2, “Soluble guanylate cyclase stimulators” (MERCK SHARP & DOHME CORP., priority 2015, dated 2018).

This test has as its target sGC α1/β1 heterodimer (Homo sapiens (Human), UniProt Q02108+Q02153). As to the kind of experiment: Cell-based sGC functional assay (cyclic GMP assay for sGC activator: CASA assay). Also on record: % Activation: concentration or dose not given beside the values. To be noted: CHO-K1/sGC cells; for EC50: inflection point, 4P fit, read-out: IP; for Emax: CHO-K1, activity expressed as percentage of compound A (standard), read-out: % Activation. The source says: Cell-Based sGC Functional Assay (Cyclic GMP Assay for sGC Activator: CASA Assay)
Soluble guanylate cyclase (sGC) is a heme-containing enzyme that converts GTP to secondary messenger cGMP. Increases in cGMP levels affect several physiological processes including vasorelaxation through multiple downstream pathways. […] Heme-dependent activators (HDAs) preferentially activate sGC containing a ferrous heme group. To determine the effect of sGC activators on enzyme activity, the CASA assay was developed to monitor the generation of cGMP in a cell line that stably expresses the heterodimeric sGC protein.
A CHO-K1 cell line stably expressing the sGC α1/β1 heterodimer was generated using a standard transfection protocol. CHO-K1 cells were transfected with plasmids pIREShyghsGCα1 and pIRESneo-hsGCβ1 simultaneously using FUGENE reagent. Clones that stably express both subunits were selected with hygromycin and neomycin for ˜2 weeks. Clone #7 was chosen for the assay and was designated CHO-K1/sGC. CHO-K1/sGC cells were maintained in F-K12 medium containing 10% heat-inactivated Fetal Bovine Serum (FBS), 100 μg/mL penicillin/streptomycin, 0.5 mg/mL hygromycin and 0.25 mg/mL G418. The cells were then cryopreserved in LN2. On the day of the assay, the cells were thawed and resuspended in EBSS Assay Buffer (Sigma, E3024) supplemented with 5 mM MgCl2, 10 mM HEPES (4-(2-hydroxyethyl)piperazine-1-ethanesulfonic acid) and 0.05% BSA (bovine serum albumin) (EAB) and cell density was then adjusted to 2.25×10^5/mL with EAB. IBMX (3-isobutyl-1-methylxanthin, 0.5 mM) was added to inhibit degradation of cGMP. Compounds were diluted from DMSO stock solutions and added to the assay at a final DMSO concentration of 2.5%. Cells were pre-incubated in the presence and absence of 1 μM of Diethylenetriamine/nitric oxide adduct (DETA-NO; Sigma, 17018) for 30 min at 25° C. Compounds are subsequently added and incubated for 1 hr at 37° C. At the end of the incubation period, the reaction was terminated and the cells were lysed with the detection reagents from Cisbio Kits. The level of intracellular cGMP was determined using an HTRF-based assay kit (CisBio, 62GM2PEC), which detects the displacement of a fluorescence labeled cGMP from its specific antibody. The cGMP produced by test compounds was directly compared to the maximum cGMP production (this value was set to equal 100% activation.) of the published sGC-HDA compound A:
(Example 1 in WO 2010/065275, published Jun. 10, 2010). The test compounds' activity were then expressed as a percentage of compound A, the standard in every experiment. This percent activation was calculated either in the presence or absence of DETA-NO which was then plotted. Inflection points (IP) and maximum fold induction was derived using Abase analysis software for 4P fit.

Sequence of sGC α1/β1 heterodimer (Q02108 whole entry): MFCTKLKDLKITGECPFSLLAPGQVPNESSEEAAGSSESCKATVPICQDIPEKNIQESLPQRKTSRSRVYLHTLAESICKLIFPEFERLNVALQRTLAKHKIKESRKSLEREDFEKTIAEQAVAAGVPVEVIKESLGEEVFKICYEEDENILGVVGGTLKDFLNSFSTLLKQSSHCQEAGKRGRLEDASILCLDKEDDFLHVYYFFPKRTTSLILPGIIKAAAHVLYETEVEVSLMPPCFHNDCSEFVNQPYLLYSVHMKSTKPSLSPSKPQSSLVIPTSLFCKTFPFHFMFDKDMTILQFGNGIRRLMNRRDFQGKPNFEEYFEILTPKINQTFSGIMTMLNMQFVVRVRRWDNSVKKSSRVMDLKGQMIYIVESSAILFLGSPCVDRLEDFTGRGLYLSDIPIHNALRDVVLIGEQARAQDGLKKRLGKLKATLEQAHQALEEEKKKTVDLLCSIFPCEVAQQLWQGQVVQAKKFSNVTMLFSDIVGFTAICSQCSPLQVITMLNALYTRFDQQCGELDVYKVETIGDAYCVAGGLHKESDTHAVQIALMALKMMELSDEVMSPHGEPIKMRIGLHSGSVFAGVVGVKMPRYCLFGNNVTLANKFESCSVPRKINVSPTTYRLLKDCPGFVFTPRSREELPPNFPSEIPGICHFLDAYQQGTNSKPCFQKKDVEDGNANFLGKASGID
Sequence of sGC α1/β1 heterodimer (Q02153 whole entry): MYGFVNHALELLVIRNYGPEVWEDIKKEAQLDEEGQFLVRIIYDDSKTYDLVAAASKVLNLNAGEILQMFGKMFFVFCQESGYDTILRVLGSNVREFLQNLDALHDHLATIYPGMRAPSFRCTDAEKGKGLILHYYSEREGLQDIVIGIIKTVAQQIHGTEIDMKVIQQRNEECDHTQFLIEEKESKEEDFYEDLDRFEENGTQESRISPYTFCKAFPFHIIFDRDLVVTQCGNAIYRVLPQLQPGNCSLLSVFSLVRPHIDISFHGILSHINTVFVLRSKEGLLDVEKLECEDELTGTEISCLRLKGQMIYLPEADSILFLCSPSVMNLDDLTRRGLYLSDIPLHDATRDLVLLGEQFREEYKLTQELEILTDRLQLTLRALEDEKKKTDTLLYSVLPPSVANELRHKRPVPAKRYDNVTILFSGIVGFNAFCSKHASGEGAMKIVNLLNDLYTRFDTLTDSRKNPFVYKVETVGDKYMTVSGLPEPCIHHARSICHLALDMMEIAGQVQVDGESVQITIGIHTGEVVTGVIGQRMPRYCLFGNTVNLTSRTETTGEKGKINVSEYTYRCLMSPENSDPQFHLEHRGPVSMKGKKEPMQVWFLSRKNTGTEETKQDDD

As for `CC1CCC(Cn2nc(-c3nc(N)c4c(n3)NC(=O)C4(C)c3nc(CC(C)(C)C(=O)O)co3)c3ccc(F)cc32)CC1` (racemic) [Example 137AB, 3-{2-[4-amino-2-{6-fluoro-1-[4-methylcyclohexylmethyl]-1H-indazol-3-yl}-5-methyl-6-oxo-6,7-dihydro-5H-pyrrolo[2,3-d]pyrimidin-5-yl]-1,3-oxazol-4-yl}-2,2-dimethylpropanoic acid], the “% Activation” value (activity expressed as percentage of compound A (standard)) came to 98.4%. Consider `CC1(c2nn(C(C)(C)C(=O)O)c(=O)o2)C(=O)Nc2nc(-c3nn(CCC(F)(F)C(F)(F)F)c4cc(Cl)ccc34)nc(N)c21` (single isomer, unassigned) [Example 99B, 2-[5-{4-Amino-2-[6-chloro-1-(3,3,4,4,4-pentafluorobutyl)-1H-indazol-3-yl]-5-methyl-6-oxo-6,7-dihydro-5H-pyrrolo[2,3-d]pyrimidin-5-yl}-2-oxo-1,3,4-oxadiazol-3(2H)-yl]-2-methylpropanoic acid], for which the EC50 was 186 nM. `CC(C)(Cc1ccc(C2(C)C(=O)Nc3nc(-c4nn(CCC(F)(F)C(F)(F)F)c5ncccc45)nc(N)c32)nc1)C(=O)O` (centres unmarked) [Example 8B, 3-(6-{4-amino-5-methyl-6-oxo-2-[1-(3,3,4,4,4-pentafluoro-butyl)-1H-pyrazolo[3,4-b]pyridin-3-yl]-6,7-dihydro-5H-pyrrolo[2,3-d]pyrimidin-5-yl}pyridin-3-yl)-2,2-dimethyl-propanoic acid]: the Emax came out at 129% and the EC50 was found to be 1360 nM. On the same counts, the results for `CC1(c2cccc(CCC(=O)O)c2)C(=O)Nc2nc(-c3nn(Cc4ccccc4F)c4ncc(F)cc34)nc(N)c21` (centres unmarked) [Example 24A, 3-(3-{4-amino-2-[5-fluoro-1-(2-fluorobenzyl)-1H-pyrazolo[3,4-b]pyridin-3-yl]-5-methyl-6-oxo-6,7-dihydro-5H-pyrrolo[2,3-d]pyrimidin-5-yl}phenyl)propanoic acid] are 106% and 210 nM. As for `CC1(c2cn(CCC(=O)O)nn2)C(=O)Nc2nc(-c3nn(CCC(F)(F)C(F)(F)F)c4cc(Cl)ccc34)nc(N)c21` (centres unmarked) [Example 29B, 3-(4-{4-amino-2-[6-chloro-1-(3,3,4,4,4-pentafluorobutyl)-1H-indazol-3-yl]-5-methyl-6-oxo-6,7-dihydro-5H-pyrrolo[2,3-d]pyrimidin-5-yl}-1H-1,2,3-triazol-1-yl)propanoic acid], the Emax was 82%. Take `CC1(c2cccc(CCC(=O)O)c2)C(=O)Nc2nc(-c3nn(Cc4ccccc4F)c4cc(Cl)ccc34)nc(N)c21` (centres unmarked) [Example 48A, 3-(3-{4-amino-2-(6-chloro-1-(2-fluorobenzyl)-1H-indazol-3-yl)-5-methyl-6-oxo-6,7-dihydro-5H-pyrrolo[2,3-d]pyrimidin-5-yl}phenyl)propanoic acid]: the Emax came to 102% and the EC50 worked out at 257 nM. On the same counts, the results for `CC1(c2nc(CCCC(=O)O)cs2)C(=O)Nc2nc(-c3nn(Cc4ccccc4F)c4cc(Cl)ccc34)nc(N)c21` (centres unmarked) [Example 49A, 4-(2-{4-amino-2-(6-chloro-1-(2-fluorobenzyl)-1H-indazol-3-yl)-5-methyl-6-oxo-6,7-dihydro-5H-pyrrolo[2,3-d]pyrimidin-5-yl}thiazol-4-yl)butanoic acid] are 91% and 119 nM. The corresponding values for `CC1(c2nc(CCC(=O)O)co2)C(=O)Nc2nc(-c3nn(Cc4ccccc4F)c4cc(Cl)ccc34)nc(N)c21` (centres unmarked) [Example 50A, 3-(2-{4-amino-2-(6-chloro-1-(2-fluorobenzyl)-1H-indazol-3-yl)-5-methyl-6-oxo-6,7-dihydro-5H-pyrrolo[2,3-d]pyrimidin-5-yl}oxazol-4-yl)propanoic acid] are 98% and 407 nM. On the same counts, the results for `CC1(c2cccc(CCC(=O)O)c2)C(=O)Nc2nc(-c3nn(Cc4ccccc4F)c4ccccc34)nc(N)c21` (centres unmarked) [Example 53A, 3-(3-{4-amino-2-[1-(2-fluorobenzyl)-1H-indazol-3-yl]-5-methyl-6-oxo-6,7-dihydro-5H-pyrrolo[2,3-d]pyrimidin-5-yl}phenyl)propanoic acid] are 102% and 124 nM. For the compound `CC1(c2nc(CCC(=O)O)co2)C(=O)Nc2nc(-c3nn(Cc4ccccc4F)c4ccccc34)nc(N)c21` (centres unmarked) [Example 54A, 3-(2-{4-amino-2-[1-(2-fluorobenzyl)-1H-indazol-3-yl]-5-methyl-6-oxo-6,7-dihydro-5H-pyrrolo[2,3-d]pyrimidin-5-yl}oxazol-4-yl)propanoic acid], the Emax stood at 106% and the EC50 amounted to 490 nM.

Take `CC1(c2nc(CCCC(=O)O)cs2)C(=O)Nc2nc(-c3nn(Cc4ccccc4F)c4ccccc34)nc(N)c21` (centres unmarked) [Example 55A, 4-(2-{4-amino-2-[1-(2-fluorobenzyl)-1H-indazol-3-yl]-5-methyl-6-oxo-6,7-dihydro-5H-pyrrolo[2,3-d]pyrimidin-5-yl}thiazol-4-yl)butanoic acid]: the Emax worked out at 105% and the EC50 was 432 nM. For the compound `CC(C)(Cc1coc(C2(C)C(=O)Nc3nc(-c4nn(Cc5ccccc5F)c5ccccc45)nc(N)c32)n1)C(=O)O` (centres unmarked) [Example 56A, 3-(2-{4-amino-2-[1-(2-fluorobenzyl)-1H-indazol-3-yl]-5-methyl-6-oxo-6,7-dihydro-5H-pyrrolo[2,3-d]pyrimidin-5-yl}oxazol-4-yl)-2,2-dimethylpropanoic acid], the Emax is 116% and the EC50 turned out to be 134 nM. Consider `C[C@@]1(c2ccc(CCC(=O)O)cc2)C(=O)Nc2nc(-c3nn(Cc4ccc(F)cc4)c4cc(Cl)ccc34)nc(N)c21` [Example 65B, (S)-3-(4-{4-amino-2-[6-chloro-1-(4-fluorobenzyl)-1H-indazol-3-yl]-5-methyl-6-oxo-6,7-dihydro-5H-pyrrolo[2,3-d]pyrimidin-5-yl}phenyl)propanoic acid], for which the Emax stood at 136% and the EC50 was 1100 nM.

For the compound `C[C@@]1(c2ccc(CCC(=O)O)cc2)C(=O)Nc2nc(-c3nn(Cc4ccccc4F)c4ccc(F)cc34)nc(N)c21` [Example 71B, (S)-3-(4-{4-amino-2-[5-fluoro-1-(2-fluorobenzyl)-1H-indazol-3-yl]-5-methyl-6-oxo-6,7-dihydro-5H-pyrrolo[2,3-d]pyrimidin-5-yl}phenyl)propanoic acid], the Emax worked out at 78% and the EC50 worked out at 73 nM. Regarding `CC(C)(Cc1coc(C2(C)C(=O)Nc3nc(-c4nn(Cc5ccccc5F)c5ccc(F)cc45)nc(N)c32)n1)C(=O)O` (centres unmarked) [Example 72A, 3-(2-{4-amino-2-[5-fluoro-1-(2-fluorobenzyl)-1H-indazol-3-yl]-5-methyl-6-oxo-6,7-dihydro-5H-pyrrolo[2,3-d]pyrimidin-5-yl}oxazol-4-yl)-2,2-dimethylpropanoic acid], the Emax turned out to be 80% and the EC50 is 42 nM. In the case of `C[C@@]1(c2ccc(CCC(=O)O)cc2)C(=O)Nc2nc(-c3nn(Cc4ccccc4F)c4ccc(Cl)cc34)nc(N)c21` [Example 73B, (S)-3-(4-{4-amino-2-[5-chloro-1-(2-fluorobenzyl)-1H-indazol-3-yl]-5-methyl-6-oxo-6,7-dihydro-5H-pyrrolo[2,3-d]pyrimidin-5-yl}phenyl)propanoic acid], the Emax came out at 87% and the EC50 came to 85 nM.
